The values that follow come from publication PMC12389136, “Insights into the Structural Patterns in Human Glioblastoma Cell Line SF268 Activity and ADMET Prediction of Curcumin Derivatives” (Pharmaceutics, 2025).

One assay has as its system Vero cells. The assay is described as follows: Mammalian cytotoxicity, MTT assay in Vero cells. It counts as cell-based. Conditions: 48 h; for IC50: Chlorocebus sabaeus. The procedure:
Grade IV SF268 glioblastoma cells and Vero epithelial cells were obtained from ATCC and cultured in complete medium consisting of Roswell Park Memorial Institute medium (RPMI-1640) supplemented with 0.05% gentamicin (50 mg/mL) and 10% FBS (fetal bovine serum; Gibco, Invitrogen, Carlsbad, CA, USA). Cultures were maintained at 37 °C in a 5% CO2 atmosphere and split by trypsin treatment once per week to maintain confluence.
For the cytotoxicity assays, Vero cells were cultivated in 96-well plates at 37 °C under a 5% CO2 atmosphere using RPMI-1640 medium with 0.05% gentamicin (50 mg/mL) and 10% FBS (fetal bovine serum). Vero cells were allowed to adhere for 24 h before being incubated for 48 h with the samples. During the treatment, dimethyl sulfoxide (DMSO) was used as a negative control, curcumin (1) was used as a control, and samples were assayed at four different concentrations. After incubation, MTT (3-(4,5-di-methyl-thiazol-2-yl)-2,5-diphenyl-tetrazolium bromide) was added to each well, and the absorbance at 570 nm was determined 4 h later using a color plate reader. Cytotoxicity was evaluated colorimetrically by calculating the ability of the remaining living Vero cells to reduce the pale yellow MTT to the black–purple formazan product, as previously described. All bioassays were performed in duplicate, and the inhibitory concentration (IC50) values were determined using the Data Analysis complement Wizard of Excel 2000 (Microsoft, Seattle, WA, USA).

The test system of another assay is SF268 glioblastoma cells. Briefly: MTT cytotoxicity in the glioblastoma cell line SF268 (single-concentration screening and IC50). It is filed as cell-based, Human. As to conditions: for IC50 / activity at 10 µg/mL: Homo sapiens; for IC50: SF-268; for activity at 10 µg/mL: SF-268, 48 h, read-out: Growth Screening (%RG); for activity at 10 µg/mL / Growth Screening (%RG): SF268, single concentration 10 µg/mL, 48 h, percentage of relative growth; for Selectivity Index (SI): Vero versus SF268. The procedure:
Cultures were maintained at 37 °C in a 5% CO2 atmosphere and split by trypsin treatment once per week to maintain confluence.
RPMI without cells was used as a color control, and doxorubicin was used as an inhibition control. After treatment, MTT was added to each well, and the absorbance at 570 nm was determined 4 h later using a color plate reader. All bioassays were performed in duplicate, and the IC50 values were determined by the Data Analysis complement Wizard of Excel 2000 (Microsoft, Seattle, WA, USA).

Another assay deals with SF268 cell microtubules. Briefly: Immunofluorescence staining of microtubules in SF268 cells. It counts as cell-based, Human. As to conditions: SF268, 10 µg/mL, 24 h / 12 h, versus DMSO control.
The subject of assay [1] is mitochondrial membrane potential of SF268 cancer cells. The assay is described as follows: Mitochondrial membrane potential measurement with DiOC6. It is filed as cell-based, Human. Conditions: 10 µg/mL, 6 h, versus DMSO control. The method, then:
Changes in membrane potential were measured by staining cultured cells with the mitochondrial selective dye 3,3′-dihexyloxacarbocyanine (DiOC6) at 10 nM (Thermo Fisher, Waltham, MA, USA). The samples were incubated at 10 μg/mL for 6 h at 37 °C and then stained for 20 min with DiOC6 in the dark. Following incubation, the cells were washed, and the green fluorescence intensity of the DiOC6-stained cells was analyzed with a fluorometer immediately after staining. Incubation for 1 h with the mitochondrial membrane disruptor CCCP, carbonyl cyanide m-chlorophenylhydrazone (50 μM final concentration), was used as a positive control.
Changes in the mitochondrial membrane potential, a common hallmark of programmed cell death, were analyzed in samples with promising activities toward CNS cell line growth. We examined the effects of these compounds on the mitochondrial membrane potential using the dye DiOC6, a fluorophore that accumulates rapidly and selectively inside mitochondria depending on the membrane potential.
Figure 6 Changes in mitochondrial membrane potential caused by the compounds. Fluorometry was used to measure the mitochondrial effects of compounds that inhibited cell growth in culture. A membrane disruptor (CCCP) was added as a positive control, and untreated cultures (DMSO) were used as a negative control. […]

A further assay deals with T1, Porcine tubulin (Sus scrofa, UniProt P02550+P02554).
T1 construct: purchased Cytoskeleton Inc., Denver, CO, USA BK011P; host or cells: porcine neural tissue (tissue-purified; that it is brain is my own knowledge of the kit)
Briefly: In vitro tubulin polymerization assay (cell-free kit). It counts as biochemical. Conditions: 10 µg/mL, 1 h at 37 °C, versus DMSO control. The procedure: A Tubulin Polymerization Assay Kit (Porcine tubulin and Fluorescence-based; Cat. # BK011P) (Cytoskeleton Inc., Denver, CO, USA) was used. Neural tubulin (>99% pure cytoskeleton) and tubulin polymerization buffer were mixed with 10 µg/mL curcumin derivatives or the vehicle DMSO at 37 °C in a preheated 96-well plate. The measurement of […] was immediately initiated using a Bio-Tek Synergy HT plate reader (one reading per minute for 1 h, according to the kit instructions). The rate of tubulin polymerization (milli-OD340 units per min) was then calculated for each sample from the linear portion of the kinetics curve, and group mean rates were analyzed for statistical significance.
We used a fluorescence cell-free-based assay to analyze the ability of curcumin to inhibit tubulin polymerization into microtubules in vitro. […]
Figure 5 (A) Tubulin polymerization of compounds 1, 2, 3, 4, 6, and 11. Tubulin polymerization was monitored by the increase in fluorescence at 360 nm (excitation) and 420 nm (emission) for 1 h at 37 °C. […]
The tubulin polymerization activities were determined by measuring fluorescence and recording the area under the curve (AUC). Increasing fluorescence indicates increasing polymerization activity, whereas decreasing fluorescence indicates greater depolymerization activity.

≈ marks a conversion by molar mass, not a printed value.

T1 sequence (P02550 whole entry): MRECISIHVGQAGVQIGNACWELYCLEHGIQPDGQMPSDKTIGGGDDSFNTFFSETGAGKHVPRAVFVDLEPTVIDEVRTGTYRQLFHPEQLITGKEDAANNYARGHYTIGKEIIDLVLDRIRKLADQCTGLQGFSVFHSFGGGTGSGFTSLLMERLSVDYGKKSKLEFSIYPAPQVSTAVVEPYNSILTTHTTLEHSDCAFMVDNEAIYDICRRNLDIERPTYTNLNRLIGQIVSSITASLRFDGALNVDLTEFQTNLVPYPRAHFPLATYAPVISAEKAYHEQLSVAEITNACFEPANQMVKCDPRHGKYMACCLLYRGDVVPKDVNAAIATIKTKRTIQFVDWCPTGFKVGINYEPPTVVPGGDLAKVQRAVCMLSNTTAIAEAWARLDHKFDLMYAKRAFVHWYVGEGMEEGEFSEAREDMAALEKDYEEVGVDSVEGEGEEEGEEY
T1 sequence (P02554 whole entry): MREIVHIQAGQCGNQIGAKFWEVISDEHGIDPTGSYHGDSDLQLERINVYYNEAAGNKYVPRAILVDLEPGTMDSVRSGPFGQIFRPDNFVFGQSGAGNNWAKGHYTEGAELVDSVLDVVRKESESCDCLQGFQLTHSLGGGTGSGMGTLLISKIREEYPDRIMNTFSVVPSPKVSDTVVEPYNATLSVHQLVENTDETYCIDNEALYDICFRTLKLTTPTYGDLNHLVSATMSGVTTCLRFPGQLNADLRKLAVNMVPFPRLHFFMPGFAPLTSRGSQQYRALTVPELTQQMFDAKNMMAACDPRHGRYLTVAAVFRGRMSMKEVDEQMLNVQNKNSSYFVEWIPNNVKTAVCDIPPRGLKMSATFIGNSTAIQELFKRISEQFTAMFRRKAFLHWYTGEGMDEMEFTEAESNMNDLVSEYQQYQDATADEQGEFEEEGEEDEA
Experimental for SF268 cell microtubules: SF268 cells were seeded onto 96-well plates and allowed to adhere overnight in complete growth medium (RPMI-1640).
After treatment, the cells were rinsed two times with PBS, fixed in 4% paraformaldehyde (15 min), and permeabilized with 0.5% Triton X-100 (Sigma Aldrich, St. Louis, MO, USA) (5 min). Nonspecific binding was blocked with 5% bovine serum albumin (BSA) in phosphate-buffered saline (PBS) for 1 h. […] Nuclei were counterstained with Hoechst 33342 (15 min), washed 2 times with PBS, and left in PBS at 4 °C in the dark.
Fluorescence images were acquired with an Olympus IX70 microscope (Olympus, Tokyo, Japan) using a 60× objective with identical exposure settings for all conditions. Microtubule density and organization were acquired and analyzed using β-tubulin signals in HCImage Hamamatsu (version 4.8) and ImageJ (version 1.54).
SF268 cells were exposed to media containing either DMSO as a control or curcumin derivatives at 10 μg/mL for 24 h, after which the microtubules were visualized with an α tubulin antibody (yellow), and the cell nuclei were stained with Hoechst (blue).
The cells were then stained with a β-tubulin antibody (yellow) and Hoechst dye (blue) to visualize the nucleus.

For the compound “1,7-bis(4-hydroxy-3-methoxyphenyl)hepta-1,6-diene-3,5-dione [Compound 1, reference compound]”, in the assay with Vero cells, the “IC50 VERO” value is 15.9 µg/mL. The “IC50 SF268” value in the assay with SF268 glioblastoma cells (SF268, 48 h, MTT) is listed as 6.3 µg/mL.
Turning to `COc1cc(/C=C/C(O)=C/C(=O)/C=C/c2ccc(OCc3ccccc3)c(OC)c2)ccc1O` [Compound 2], the “microtubule density and organization” value in the assay on SF268 cell microtubules was “significant reduction in microtubule density”. The IC50 – broadly, the concentration that inhibits the measured activity by half – with Vero cells was found to be 11.9 µg/mL (≈ 26 µM); in the assay on SF268 glioblastoma cells (SF268, 48 h, MTT), 3.97 µg/mL (≈ 8.65 µM).
Take `COc1cc(/C=C/C(O)=C/C(=O)/C=C/c2ccc(OC(C)=O)c(OC)c2)ccc1O` [Compound 3]: the “mitochondrial membrane potential (DiOC6 fluorescence intensity)” value in assay [1] is recorded as “lowest fluorescence intensity”. Moreover, the 50% inhibitory concentration (IC50) amounted to 13.2 µg/mL (≈ 32.2 µM) with Vero cells and 0.88 µg/mL (≈ 2.14 µM) in the assay with SF268 glioblastoma cells (SF268, 48 h, MTT). The activity at 10 µg/mL with SF268 glioblastoma cells (MTT) is at most 40%.
Take `COc1cc(/C=C/C(=O)/C=C(O)/C=C/c2ccc(OC(C)=O)c(OC)c2)ccc1OC(C)=O` [Compound 4, (1E,3Z,6E)-3-hydroxy-5-oxohepta-1,3,6-triene-1,7-diyl)bis(2-methoxy-4,1-phenylene) diacetate]: the IC50 in the assay with Vero cells worked out at 42.1 µg/mL; in the assay on SF268 glioblastoma cells (SF268, 48 h, MTT), 2.45 µg/mL. Also, the activity at 10 µg/mL in the assay with SF268 glioblastoma cells (MTT) is at most 40%. Besides, in the assay with SF268 glioblastoma cells, the “Selectivity Index (SI)” value came to 17.16.
With `COC(=O)CCC(=O)Oc1ccc(/C=C/C(=O)/C=C(O)/C=C/c2ccc(O)c(OC)c2)cc1OC` [Compound 6], the “microtubule density and organization” value in the assay on SF268 cell microtubules is on record as “significant reduction in microtubule density”. Also, the IC50 is 12.9 µg/mL (≈ 26.7 µM) with Vero cells and 0.833 µg/mL (≈ 1.73 µM) in the assay on SF268 glioblastoma cells (SF268, 48 h, MTT). In addition, the activity at 10 µg/mL in the assay with SF268 glioblastoma cells (MTT) was at most 40%. Further, the “Selectivity Index (SI)” value in the assay with SF268 glioblastoma cells came out at 15.45.
As to `COc1cc(/C=C/C(O)=C/C(=O)/C=C/c2ccc(OC(=O)CCC(=O)O[C@@H]3C[C@H](C)CC[C@H]3C(C)C)c(OC)c2)ccc1O` [Compound 7], in the assay with SF268 glioblastoma cells (MTT), the activity at 10 µg/mL was 50.9%.
On the same count and under the same terms, under `COc1cc(C=CC(=O)C=C(O)C=Cc2ccc(OC(=O)CCC(=O)OC3CC(C)CCC3C(C)C)c(OC)c2)ccc1OC(=O)CCC(=O)OC1CC(C)CCC1C(C)C` (stereo not shown) [Compound 8] stands 55.2%.
Same read-out and setting: the figure for `COc1cc(/C=C/C(O)=C/C(=O)/C=C/c2ccc(OC(=O)CCC(=O)OC3C4CC5CC(C4)CC3C5)c(OC)c2)ccc1O` (stereo not shown) [Compound 9] is 45.6%.
On the same count and under the same terms, under `COc1cc(/C=C/C(=O)/C=C(O)/C=C/c2ccc(OC(=O)CCC(=O)OC3C4CC5CC(C4)CC3C5)c(OC)c2)ccc1OC(=O)CCC(=O)OC1C2CC3CC(C2)CC1C3` (stereo not shown) [Compound 10] stands 52%; under `C=CCOC(=O)CCC(=O)Oc1ccc(/C=C/C(=O)/C=C(O)/C=C/c2ccc(OC(=O)CCC(=O)OCC=C)c(OC)c2)cc1OC` [Compound 12, Diallyl O,O′-(((1E,3Z,6E)-3-hydroxy-5-oxohepta-1,3,6-triene-1,7-diyl)bis(2-methoxy-4,1-phenylene)) disuccinate], 49.2%; under `COc1cc(/C=C/C(=O)/C=C(O)/C=C/c2ccc(OC(=O)CCC(=O)OCc3ccccc3)c(OC)c2)ccc1OC(=O)CCC(=O)OCc1ccccc1` [Compound 14, Dibenzyl O,O′-(((1E,3Z,6E)-3-hydroxy-5-oxohepta-1,3,6-triene-1,7-diyl)bis(2-methoxy-4,1-phenylene)) disuccinate], 85.1%.
Regarding `COc1cc(/C=C/C(O)=C/C(=O)/C=C/c2ccc(OC(=O)CCC(=O)OC(c3ccccc3)C3CCCCC3)c(OC)c2)ccc1O` (stereo not shown) [Compound 15], the activity at 10 µg/mL in the assay on SF268 glioblastoma cells (MTT) stood at 47.9%.
On the same count and under the same terms, the figure for `COc1cc(/C=C/C(=O)/C=C(O)/C=C/c2ccc(OC(=O)CCC(=O)OC(c3ccccc3)C3CCCCC3)c(OC)c2)ccc1OC(=O)CCC(=O)OC(c1ccccc1)C1CCCCC1` (stereo not shown) [Compound 16] is 57.2%.
On the same count and under the same terms, under `COc1cc(/C=C/C(O)=C/C(=O)/C=C/c2ccc(OC(=O)CCC(=O)OC3CCCc4ccccc43)c(OC)c2)ccc1O` (stereo not shown) [Compound 17] stands 46.8%.
The same measure, in the same setting: under `COc1cc(/C=C/C(=O)/C=C(O)/C=C/c2ccc(OC(=O)CCC(=O)OC3Cc4ccccc4C3)c(OC)c2)ccc1OC(=O)CCC(=O)OC1Cc2ccccc2C1` [Compound 18] stands 62.9%.
On to `COc1cc(/C=C/C(O)=C/C(=O)/C=C/c2ccc(OC(=O)CCC(=O)OC3c4ccccc4-c4ccccc43)c(OC)c2)ccc1O` [Compound 19], for which the IC50 with Vero cells came to 15.2 µg/mL (≈ 24 µM); with SF268 glioblastoma cells (SF268, 48 h, MTT), 1.11 µg/mL (≈ 1.75 µM). For the same compound, the activity at 10 µg/mL with SF268 glioblastoma cells (MTT) is at most 40%. The “Selectivity Index (SI)” value in the assay with SF268 glioblastoma cells came out at 13.71.
Regarding `COc1cc(/C=C/C(=O)/C=C(O)/C=C/c2ccc(OC(=O)CCC(=O)OC3c4ccccc4-c4ccccc43)c(OC)c2)ccc1OC(=O)CCC(=O)OC1c2ccccc2-c2ccccc21` [Compound 20], the activity at 10 µg/mL in the assay with SF268 glioblastoma cells (MTT) worked out at 63%.
On to `COc1cc(/C=C/C(O)=C/C(=O)/C=C/c2ccc(OC(=O)CCC(=O)OC(c3ccccc3)c3ccccc3)c(OC)c2)ccc1O` [Compound 21], for which the IC50 in the assay on Vero cells was 46 µg/mL (≈ 72.5 µM); in the assay with SF268 glioblastoma cells (SF268, 48 h, MTT), 36.4 µg/mL (≈ 57.4 µM). The activity at 10 µg/mL in the assay with SF268 glioblastoma cells (MTT) was at most 40%. For the same compound, the “Selectivity Index (SI)” value with SF268 glioblastoma cells was found to be 1.26.
The matching figures for `COc1cc(/C=C/C(O)=C/C(=O)/C=C/c2ccc(OC(=O)CCC(=O)OCc3ccc4c(c3)C(=O)c3ccccc3C4=O)c(OC)c2)ccc1O` [Compound 22]: 72.8 µg/mL (≈ 106 µM), 58.9 µg/mL (≈ 85.5 µM), at most 40% and 1.19.
Turning to `CC(=O)O[C@H]1C(=O)[C@@]2(C)[C@H]([C@H](OC(=O)c3ccccc3)[C@]3(O)C[C@H](OC(=O)[C@H](O)[C@@H](NC(=O)c4ccccc4)c4ccccc4)C(C)=C1C3(C)C)[C@]1(OC(C)=O)CO[C@@H]1C[C@@H]2O` [Paclitaxel], on Porcine tubulin, the “tubulin polymerization (fluorescence, AUC)” value is on record as “caused an increase in the AUC”.
On the same count and under the same terms, the entry for `[Ca+2].[Cl-].[Cl-]` [calcium chloride] is “significant decrease in the AUC”.
In the case of “Benzyl (4-((1E,3Z,6E)-3-hydroxy-7-(4-hydroxy-3-methoxyphenyl)-5-oxohepta-1,3,6-trien-1-yl)-2-methoxyphenyl) succinate [Compound 13]”, the “Growth Screening (%RG)” value in the assay on SF268 glioblastoma cells (MTT) amounted to 49.88%.
As to “Cyclopentyl (4-((1E,3Z,6E)-3-hydroxy-7-(4-hydroxy-3-methoxyphenyl)-5-oxohepta-1,3,6-trien-1-yl)-2-methoxyphenyl) succinate [Compound 5]”, the “IC50 VERO” value in the assay on Vero cells is listed as 12.6 µg/mL. In addition, the “Growth Screening (%RG)” value in the assay with SF268 glioblastoma cells (MTT) was 50.81%.
